The record followed here is ChEMBL document CHEMBL5584307, “Discovery of a Potent and Orally Bioavailable Xanthine Oxidase/Urate Transporter 1 Dual Inhibitor as a Potential Treatment for Hyperuricemia and Gout” (J Med Chem, 2024).

For orientation: IC50 means the concentration that gives 50% inhibition. Usually half-life stands for the time needed for the level to fall by half in the phase considered. As a reminder, the Cmax is the peak of the concentration-time curve. By clearance is commonly meant the rate of elimination divided by the concentration. The AUC(0-t) is exposure summed from dosing to a finite time, without extrapolation to infinity. One may read the NOAEL as the highest tested level that showed no adverse finding.

For data set [1], the target named is T1, Solute carrier family 22 member 12 (Homo sapiens, UniProt Q96S37).
T1 sequence (Q96S37 whole entry): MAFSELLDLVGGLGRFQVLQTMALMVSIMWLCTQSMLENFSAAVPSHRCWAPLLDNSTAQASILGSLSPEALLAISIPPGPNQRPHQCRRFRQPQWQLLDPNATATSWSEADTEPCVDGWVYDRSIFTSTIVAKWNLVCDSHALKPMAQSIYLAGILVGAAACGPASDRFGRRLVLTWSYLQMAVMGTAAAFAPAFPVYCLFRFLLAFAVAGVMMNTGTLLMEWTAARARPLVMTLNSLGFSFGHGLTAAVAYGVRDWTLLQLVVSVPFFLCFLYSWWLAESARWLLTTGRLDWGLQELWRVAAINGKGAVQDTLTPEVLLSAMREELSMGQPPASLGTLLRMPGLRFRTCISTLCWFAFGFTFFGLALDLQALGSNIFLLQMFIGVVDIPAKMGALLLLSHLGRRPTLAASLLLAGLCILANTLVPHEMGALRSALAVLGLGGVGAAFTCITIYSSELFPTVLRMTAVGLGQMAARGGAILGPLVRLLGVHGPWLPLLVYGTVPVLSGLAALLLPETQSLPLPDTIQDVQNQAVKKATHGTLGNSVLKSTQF
In words: Inhibition of URAT1 (unknown origin) by absorbance based assay.

Data set [2] is described as follows: Oral bioavailability in overnight-fasted Sprague-Dawley rat at 5 mg/kg measured upto 24 hrs by LC-MS/MS analysis. The class given is ADME, organism-based. Particulars: in vivo.
The nature of data set [3]: Stability in dog liver microsomes assessed as half life at 1 uM measured upto 60 mins in presence of NADPH by LC-MS/MS analysis. The class given is ADME, Canis lupus familiaris, Microsome. On the technique in general: Liver microsomes are a subcellular fraction often used to study metabolism.
Data set [4] concerns the target T2, Cytochrome P450 1A2 (Homo sapiens, UniProt P05177).
T2 sequence (P05177 whole entry): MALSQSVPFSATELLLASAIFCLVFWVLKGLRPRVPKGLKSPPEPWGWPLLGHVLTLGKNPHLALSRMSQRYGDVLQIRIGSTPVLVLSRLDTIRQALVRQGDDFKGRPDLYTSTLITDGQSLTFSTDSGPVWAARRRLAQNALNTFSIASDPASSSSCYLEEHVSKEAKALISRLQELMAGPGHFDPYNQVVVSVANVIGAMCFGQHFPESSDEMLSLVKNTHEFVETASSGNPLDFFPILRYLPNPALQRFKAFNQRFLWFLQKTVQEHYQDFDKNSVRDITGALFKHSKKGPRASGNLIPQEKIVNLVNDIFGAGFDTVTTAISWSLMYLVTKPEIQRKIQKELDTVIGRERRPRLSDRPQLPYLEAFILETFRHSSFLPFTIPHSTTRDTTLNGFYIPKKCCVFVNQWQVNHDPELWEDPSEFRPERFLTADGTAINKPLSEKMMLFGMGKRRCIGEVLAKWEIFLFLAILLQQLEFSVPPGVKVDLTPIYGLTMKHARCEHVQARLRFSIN
In words: Inhibition of CYP1A2 in human liver microsomes in presence of NADPH by LC-MS/MS analysis. The class given is ADME, Microsome.

Data set [5] deals with T3, Cytochrome P450 2C8 (Homo sapiens, UniProt P10632).
T3 sequence (P10632 whole entry): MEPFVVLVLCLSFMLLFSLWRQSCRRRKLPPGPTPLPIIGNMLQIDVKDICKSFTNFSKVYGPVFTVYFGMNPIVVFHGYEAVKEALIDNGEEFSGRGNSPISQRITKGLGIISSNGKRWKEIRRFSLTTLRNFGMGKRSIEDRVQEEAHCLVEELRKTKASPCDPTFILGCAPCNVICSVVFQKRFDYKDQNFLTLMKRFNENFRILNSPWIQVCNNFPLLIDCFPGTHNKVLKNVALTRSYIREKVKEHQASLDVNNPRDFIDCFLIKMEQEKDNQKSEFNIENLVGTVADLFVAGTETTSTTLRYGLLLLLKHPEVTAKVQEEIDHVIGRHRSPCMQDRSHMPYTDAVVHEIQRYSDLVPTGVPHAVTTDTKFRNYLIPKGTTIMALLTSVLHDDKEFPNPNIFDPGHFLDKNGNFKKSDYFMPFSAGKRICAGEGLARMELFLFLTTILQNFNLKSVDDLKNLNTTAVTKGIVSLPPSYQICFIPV
In words: Inhibition of CYP2C8 in human liver microsomes in presence of NADPH by LC-MS/MS analysis. The class given is ADME, Microsome.

In data set [6] the target is T4, Cytochrome P450 3A4 (Homo sapiens, UniProt P08684). The data set can be described thus: Inhibition of CYP3A4 in human liver microsomes in presence of NADPH by LC-MS/MS analysis. The class given is ADME, Microsome.
For data set [7], the target named is T4, Cytochrome P450 3A4. In words: Induction of CYP3A4 in human hepatocytes at 50 uM incubated for 48 hrs with media containing compound renewal every 24 hrs followed by substrate addition measured after 30 mins by LC-MS/MS analysis. The class given is ADME, cell-based, Hepatocyte. To be noted: 48.5 h.
A short description of data set [8]: Genotoxicity in Salmonella typhimurium TA97 by Ames test. The class given is toxicity. Particulars: salmonella enterica subsp. enterica serovar typhimurium. In general terms: The Ames test uses bacterial strains that need an amino acid and regain growth without it when mutated back.
Data set [9] can be described thus: Cmax in Beagle dog at 5 mg/kg, po measured upto 24 hrs by LC-MS/MS analysis. To be noted: in vivo. The class given is ADME, organism-based, Canis lupus familiaris.
Data set [10] is described as follows: Clearance in Beagle dog at 1 mg/kg, iv measured upto 24 hrs by LC-MS/MS analysis. The class given is ADME, organism-based, Canis lupus familiaris. Particulars: in vivo.
Data set [11] in a line: Volume of distribution at steady state in Beagle dog at 5 mg/kg, po or 1 mg/kg, iv measured upto 24 hrs by LC-MS/MS analysis. The class given is ADME, organism-based, Canis lupus familiaris. To be noted: in vivo.
A short description of data set [12]: Half life in Cynomolgous monkey at 5 mg/kg, po measured upto 24 hrs by LC-MS/MS analysis. The class given is ADME, organism-based, Macaca fascicularis. Particulars: cynomolgus monkey, in vivo.
Data set [13] can be described thus: AUC (last) in Cynomolgous monkey at 5 mg/kg, po measured upto 24 hrs by LC-MS/MS analysis. The class given is ADME, organism-based, Macaca fascicularis. Particulars: cynomolgus monkey, in vivo.
The nature of data set [14]: AUC (last) in Cynomolgous monkey at 1 mg/kg, iv measured upto 24 hrs by LC-MS/MS analysis. The class given is ADME, organism-based, Macaca fascicularis. Particulars: cynomolgus monkey, in vivo.
A short description of data set [15]: Oral bioavailability in Cynomolgous monkey at 5 mg/kg measured upto 24 hrs by LC-MS/MS analysis. Particulars: cynomolgus monkey, in vivo. The class given is ADME, organism-based, Macaca fascicularis.
Data set [16] is described as follows: Cmax in Tufted capuchin monkey at 10 mg/kg, po measured for 24 hrs by LC-MS/MS analysis. The class given is ADME, organism-based. Particulars: sapajus apella, in vivo.
Data set [17] in a line: Cmax in Tufted capuchin monkey at 30 mg/kg, po measured for 24 hrs by LC-MS/MS analysis. The class given is ADME, organism-based. To be noted: sapajus apella, in vivo.
Data set [18] can be described thus: Cmax in Tufted capuchin monkey at 100 mg/kg, po measured for 24 hrs by LC-MS/MS analysis. The class given is ADME, organism-based. To be noted: sapajus apella, in vivo.
Data set [19] can be described thus: Toxicity in Sprague-Dawley rat assessed as development-limiting effect. Particulars: in vivo.
Data set [20] can be described thus: Toxicity in rat assessed as decrease in body weight at 120 mg/kg/day for 28 days. The class given is organism-based. Particulars: in vivo, 672 h, time 28 day.
Data set [21] can be described thus: Toxicity in cynomolgous monkey assessed as increase in fluid feces at 90 to 200 mg/kg/day for 28 days consecutively. The class given is organism-based, Macaca fascicularis. To be noted: cynomolgus monkey, in vivo, 672 h; dose 90-200 mg/kg/day, time 28 day.
Data set [22] in a line: Toxicity in cynomolgous monkey assessed as decrease in body weight at 90 to 200 mg/kg/day for 28 days consecutively. The class given is organism-based, Macaca fascicularis. Particulars: cynomolgus monkey, in vivo, 672 h; dose 90-200 mg/kg/day, time 28 day.
The nature of data set [23]: Toxicity in cynomolgous monkey administered daily for 28 days. Further details: species or system Macaca fascicularis. To be noted: cynomolgus monkey, in vivo; time 28 day.
Data set [24] is described as follows: AUC (0 to t) in female cynomolgous monkey at 30 mg/kg/day for 28 days. The class given is ADME, organism-based, Macaca fascicularis. To be noted: cynomolgus monkey, in vivo, time 28 day.

T4 sequence (P08684 whole entry): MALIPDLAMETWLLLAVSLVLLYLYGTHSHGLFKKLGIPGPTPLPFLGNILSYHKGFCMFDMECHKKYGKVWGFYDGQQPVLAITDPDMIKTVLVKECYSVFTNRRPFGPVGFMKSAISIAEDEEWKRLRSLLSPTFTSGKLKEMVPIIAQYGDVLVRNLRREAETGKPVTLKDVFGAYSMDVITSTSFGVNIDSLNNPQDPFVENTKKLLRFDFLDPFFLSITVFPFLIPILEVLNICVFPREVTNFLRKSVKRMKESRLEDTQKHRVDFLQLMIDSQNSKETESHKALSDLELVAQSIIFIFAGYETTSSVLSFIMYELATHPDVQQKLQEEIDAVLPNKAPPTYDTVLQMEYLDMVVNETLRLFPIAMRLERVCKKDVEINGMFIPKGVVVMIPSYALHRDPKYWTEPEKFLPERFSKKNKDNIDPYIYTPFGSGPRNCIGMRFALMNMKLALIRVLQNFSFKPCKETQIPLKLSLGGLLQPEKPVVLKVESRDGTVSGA

`N#Cc1cc(-c2ccc(C(=O)O)c(O)c2)c2oc(F)cc2c1`: the IC50 was 0.031 µM in data set [1], more than 50 µM in [4], 12.2 µM in data set [5] and more than 50 µM in data set [6]. Moreover, the bioavailability in [2] turned out to be 145%; in [15], 42.4%. In addition, in data set [3], the half-life at 1 µM amounted to 21.1 h. Also, the Activity was less than 20% in data set [7]; “Non-Toxic” in data set [8]; “Non-Toxic” in data set [19]; “Toxic” in data set [20]; “Toxic” in data set [21]; “Toxic” in data set [22]. For the same molecule, the Cmax in data set [9] stood at 2.53 µg/mL; in data set [16], 2.47 µg/mL; in data set [17], 16.7 µg/mL; in data set [18], 145 µg/mL. The molecule also came in with a clearance in data set [10] of 0.304 L/h/kg. The Vdss in [11] was determined as 1.71 L/kg. The half-life in data set [12] is 7.9 h. In addition, the exposure AUC(0-t) at 24 h in [13] was 34.2 µg·h/mL; in data set [14], 16.1 µg·h/mL. This molecule also returned an NOAEL at 672 h in [23] of 30 mg/kg/day. Also, in data set [24], the AUC(0-t) at 672 h came out at 336 µg·h/mL.
